Laboratory results as given in publication PMC9005681, “Use of AD Informer Set compounds to explore validity of novel targets in Alzheimer's disease pathology” (Alzheimer's & Dementia : Translational Research & Clinical …, 2022).
Where “and” joins values, the source holds several entries; their conditions need not be identical. Identical values can stand only once.

Legend:
Test in all cases: PDSP GPCR panel primary binding assays at 10 μM
[1] = target: T1, cloned human or rodent CNS receptors, channels, and transporters (PDSP panel) (Homo sapiens, UniProt P08173); details: M4, primary assay
T1 construct: expressed in transfected cells
T1 sequence (P08173 1-479): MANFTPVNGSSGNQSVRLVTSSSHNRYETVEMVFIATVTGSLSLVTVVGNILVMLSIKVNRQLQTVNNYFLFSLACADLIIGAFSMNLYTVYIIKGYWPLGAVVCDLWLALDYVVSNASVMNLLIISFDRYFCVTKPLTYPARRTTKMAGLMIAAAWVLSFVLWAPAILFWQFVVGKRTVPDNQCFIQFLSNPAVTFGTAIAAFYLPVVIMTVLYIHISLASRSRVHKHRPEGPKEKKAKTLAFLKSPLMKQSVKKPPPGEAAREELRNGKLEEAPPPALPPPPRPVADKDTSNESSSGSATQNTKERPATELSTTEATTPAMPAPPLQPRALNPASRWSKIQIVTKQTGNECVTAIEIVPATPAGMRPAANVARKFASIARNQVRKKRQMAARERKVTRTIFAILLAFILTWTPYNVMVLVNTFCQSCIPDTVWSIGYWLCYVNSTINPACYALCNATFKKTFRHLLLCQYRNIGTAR
Summary of the method: (§1)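 PDSP panel of 46–47 cloned human or rodent CNS receptors, channels and transporters; radioligand displacement by compound at 10 μM, in quadruplicate. Where average displacement exceeded 50%, secondary binding followed as 11-point dose-response in triplicate (none for H3, PBR or GABAA).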

[2] = target: T2, cloned human or rodent CNS receptors, channels, and transporters (PDSP panel) (Homo sapiens, UniProt P08908); details: 5-HT1A, primary assay
T2 construct: expressed in transfected cells
T2 sequence (P08908 1-422): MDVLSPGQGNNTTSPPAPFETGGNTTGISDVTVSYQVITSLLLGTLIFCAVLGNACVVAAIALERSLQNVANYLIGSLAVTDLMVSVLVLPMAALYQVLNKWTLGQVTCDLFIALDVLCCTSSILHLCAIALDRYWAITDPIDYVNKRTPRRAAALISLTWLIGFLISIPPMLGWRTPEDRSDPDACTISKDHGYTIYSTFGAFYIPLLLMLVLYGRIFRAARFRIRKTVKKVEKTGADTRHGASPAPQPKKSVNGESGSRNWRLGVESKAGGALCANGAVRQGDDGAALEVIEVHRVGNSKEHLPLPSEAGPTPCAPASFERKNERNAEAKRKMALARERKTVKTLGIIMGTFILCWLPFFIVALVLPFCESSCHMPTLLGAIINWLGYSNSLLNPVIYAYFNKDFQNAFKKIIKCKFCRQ
Summary of the method: as §1

[3] = target: T3, cloned human or rodent CNS receptors, channels, and transporters (PDSP panel) (Homo sapiens, UniProt P20309); details: M3, primary assay
T3 construct: expressed in transfected cells
T3 sequence (P20309 whole entry): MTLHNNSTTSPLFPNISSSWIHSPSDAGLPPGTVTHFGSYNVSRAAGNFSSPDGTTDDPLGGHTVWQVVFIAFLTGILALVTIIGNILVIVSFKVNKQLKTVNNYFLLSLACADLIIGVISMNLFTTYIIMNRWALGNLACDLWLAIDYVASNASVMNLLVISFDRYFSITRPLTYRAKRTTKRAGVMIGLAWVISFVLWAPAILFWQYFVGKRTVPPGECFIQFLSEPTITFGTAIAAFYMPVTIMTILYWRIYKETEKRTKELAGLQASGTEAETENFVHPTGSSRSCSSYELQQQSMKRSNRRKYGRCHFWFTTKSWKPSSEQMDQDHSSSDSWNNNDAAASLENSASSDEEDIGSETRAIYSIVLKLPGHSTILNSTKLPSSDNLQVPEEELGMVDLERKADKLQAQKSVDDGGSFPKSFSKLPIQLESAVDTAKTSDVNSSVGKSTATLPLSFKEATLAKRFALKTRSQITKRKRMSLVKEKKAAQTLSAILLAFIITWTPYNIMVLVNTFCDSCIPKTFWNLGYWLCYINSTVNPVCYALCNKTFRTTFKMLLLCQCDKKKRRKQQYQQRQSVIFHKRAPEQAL
Summary of the method: as §1

[4] = target: T4, cloned human or rodent CNS receptors, channels, and transporters (PDSP panel) (Homo sapiens, UniProt P21917); details: D4, primary assay
T4 construct: expressed in transfected cells
T4 sequence (P21917 1-419): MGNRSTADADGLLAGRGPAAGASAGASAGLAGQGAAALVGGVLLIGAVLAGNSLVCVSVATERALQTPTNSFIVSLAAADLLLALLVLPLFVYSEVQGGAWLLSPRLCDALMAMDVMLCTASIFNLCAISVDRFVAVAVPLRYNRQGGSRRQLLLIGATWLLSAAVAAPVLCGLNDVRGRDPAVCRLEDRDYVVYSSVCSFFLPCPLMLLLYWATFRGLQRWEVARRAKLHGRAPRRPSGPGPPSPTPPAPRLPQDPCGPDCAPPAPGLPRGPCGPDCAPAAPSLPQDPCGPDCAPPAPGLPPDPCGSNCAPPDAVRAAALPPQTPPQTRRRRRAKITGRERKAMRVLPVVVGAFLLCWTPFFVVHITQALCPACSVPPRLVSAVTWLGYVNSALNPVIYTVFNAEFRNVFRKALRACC
Summary of the method: as §1

[5] = target: T5, cloned human or rodent CNS receptors, channels, and transporters (PDSP panel) (Homo sapiens, UniProt P50406); details: 5-HT6, primary assay
T5 construct: expressed in transfected cells
T5 sequence (P50406 whole entry): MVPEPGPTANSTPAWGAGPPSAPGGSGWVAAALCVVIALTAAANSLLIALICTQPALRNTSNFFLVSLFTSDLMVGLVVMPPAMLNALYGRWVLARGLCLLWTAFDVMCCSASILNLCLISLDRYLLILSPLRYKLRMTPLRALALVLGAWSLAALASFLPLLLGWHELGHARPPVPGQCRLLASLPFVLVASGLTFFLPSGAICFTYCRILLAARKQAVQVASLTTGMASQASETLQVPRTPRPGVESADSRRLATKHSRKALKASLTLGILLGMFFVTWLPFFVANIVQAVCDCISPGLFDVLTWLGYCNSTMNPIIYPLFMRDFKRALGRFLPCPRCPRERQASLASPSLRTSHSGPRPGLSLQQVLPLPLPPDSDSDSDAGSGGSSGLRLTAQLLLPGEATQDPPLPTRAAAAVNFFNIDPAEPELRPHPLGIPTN
Summary of the method: as §1

[6] = system: cloned human or rodent CNS receptors, channels, and transporters (PDSP panel); details: primary assay; for Mean %: mean inhibition; for Inhibition 1: replicate 1; for Inhibition 2: replicate 2; for Inhibition 3: replicate 3; for Inhibition 4: replicate 4
Summary of the method: as §1

## CC(=O)N1CCC(NC(=O)NC23CC4CC(CC(C4)C2)C3)CC1 [UNC10302683A, AR9281]
[1]; mean inhibition
  Mean %: 12.52%
[1]; replicate 1
  Inhibition 1: 4.48%
[1]; replicate 2
  Inhibition 2: 16.88%
[1]; replicate 3
  Inhibition 3: 4.25%
[1]; replicate 4
  Inhibition 4: 24.46%
[2]; mean inhibition
  Mean %: -6.08%
[2]; replicate 1
  Inhibition 1: 5.09%
[2]; replicate 2
  Inhibition 2: -13.88%
[2]; replicate 3
  Inhibition 3: -5.6%
[2]; replicate 4
  Inhibition 4: -9.91%
[3]; mean inhibition
  Mean %: -3.62%
[3]; replicate 1
  Inhibition 1: -3%
[3]; replicate 2
  Inhibition 2: -3.76%
[3]; replicate 3
  Inhibition 3: 2.67%
[3]; replicate 4
  Inhibition 4: -10.4%
[4]; mean inhibition
  Mean %: -0.6%
[4]; replicate 1
  Inhibition 1: 1.15%
[4]; replicate 2
  Inhibition 2: -3.44%
[4]; replicate 3
  Inhibition 3: -3.44%
[4]; replicate 4
  Inhibition 4: 3.35%
[5]; mean inhibition
  Mean %: 9.33%
[5]; replicate 1
  Inhibition 1: 32.27%
[5]; replicate 2
  Inhibition 2: 17.51%
[5]; replicate 3
  Inhibition 3: -5.68%
[5]; replicate 4
  Inhibition 4: -6.79%
[6]; Alpha1A
  Mean %: -5.99%
  Inhibition 1: 5.7%
  Inhibition 2: -8.88%
  Inhibition 3: -13.37%
  Inhibition 4: -7.39%
[6]; Alpha2A
  Mean %: -4.95%
  Inhibition 1: 1.83%
  Inhibition 2: 1.33%
  Inhibition 3: -3.6%
  Inhibition 4: -19.37%
[6]; Alpha2C
  Mean %: -1.59%
  Inhibition 1: 8.16%
  Inhibition 2: -7.23%
  Inhibition 3: -5.47%
  Inhibition 4: -1.81%
[6]; BZP Rat Brain Site
  Mean %: -1.68%
  Inhibition 1: -9.6%
  Inhibition 2: -7.42%
  Inhibition 3: 1.02%
  Inhibition 4: 9.27%
[6]; DOR
  Mean %: -7.7%
  Inhibition 1: -16.42%
  Inhibition 2: -2.69%
  Inhibition 3: 0.93%
  Inhibition 4: -12.63%
[6]; GABAA
  Inhibition 1: 12.11% and 21.01%
  Inhibition 2: 4.71% and -10.34%
  Inhibition 3: 1.76% and -2.77%
  Inhibition 4: 5.45% and -49.8%
[6]; H3
  Mean %: 8.09%
  Inhibition 1: 9.84%
  Inhibition 2: -10.86%
  Inhibition 3: 12.17%
  Inhibition 4: 21.2%
[6]; H4
  Mean %: -2.1%
  Inhibition 1: -0.42%
  Inhibition 2: -2.58%
  Inhibition 3: -25.38%
  Inhibition 4: 19.98%
[6]; Sigma 1
  Mean %: 8.41%
[6]; Sigma 2
  Mean %: -5.79%
